Source: ChEMBL document CHEMBL4706583, “2-Anilinoquinoline based arylamides as broad spectrum anticancer agents with B-RAF/C-RAF kinase inhibitory effects: Design, synthesis, in vitro cell-based and oncogenic kinase assessments” (Eur J Med Chem, 2020)
Calls of active or inactive are those of the source. The rule behind the calls is not given here.

Assays:
[1] = system: Panel NCI-60 (60 carcinoma cell lines); test: Growth inhibition of human Panel NCI-60 (60 carcinoma cell lines) cells at 10 uM measured after 48 hrs by SRB assay relative to control; format: functional; settings: read-out: GI
LOX IMVI = test: Growth inhibition of human LOX IMVI cells at 10 uM measured after 48 hrs by SRB assay relative to control; format: functional; settings: read-out: GI
MOLT-4 = test: Growth inhibition of human MOLT-4 cells measured after 48 hrs by SRB assay; format: functional
A549 = test: Growth inhibition of human A549 cells measured after 48 hrs by SRB assay; format: functional
EKVX = test: Growth inhibition of human EKVX cells measured after 48 hrs by SRB assay; format: functional
HOP-92 = test: Growth inhibition of human HOP-92 cells measured after 48 hrs by SRB assay; format: functional
NCI-H23 = test: Growth inhibition of human NCI-H23 cells measured after 48 hrs by SRB assay; format: functional
NCI-H322M = test: Growth inhibition of human NCI-H322M cells measured after 48 hrs by SRB assay; format: functional
NCI-H460 = test: Growth inhibition of human NCI-H460 cells measured after 48 hrs by SRB assay; format: functional
COLO 205 = test: Growth inhibition of human COLO 205 cells measured after 48 hrs by SRB assay; format: functional
HCC 2998 = test: Growth inhibition of human HCC 2998 cells measured after 48 hrs by SRB assay; format: functional
HT-29 = test: Growth inhibition of human HT-29 cells measured after 48 hrs by SRB assay; format: functional
SF-268 = test: Growth inhibition of human SF-268 cells measured after 48 hrs by SRB assay; format: functional
M14 = test: Growth inhibition of human M14 cells measured after 48 hrs by SRB assay; format: functional
MDA-MB-435 = test: Growth inhibition of human MDA-MB-435 cells measured after 48 hrs by SRB assay; format: functional
SK-MEL-2 = test: Growth inhibition of human SK-MEL-2 cells measured after 48 hrs by SRB assay; format: functional
SK-MEL-28 = test: Growth inhibition of human SK-MEL-28 cells measured after 48 hrs by SRB assay; format: functional
UACC-257 = test: Growth inhibition of human UACC-257 cells measured after 48 hrs by SRB assay; format: functional
IGROV-1 = test: Growth inhibition of human IGROV-1 cells measured after 48 hrs by SRB assay; format: functional
OVCAR-4 = test: Growth inhibition of human OVCAR-4 cells measured after 48 hrs by SRB assay; format: functional
786-0 = test: Growth inhibition of human 786-0 cells measured after 48 hrs by SRB assay; format: functional
CAKI-1 = test: Growth inhibition of human CAKI-1 cells measured after 48 hrs by SRB assay; format: functional
RXF 393 = test: Growth inhibition of human RXF 393 cells measured after 48 hrs by SRB assay; format: functional
SN12C = test: Growth inhibition of human SN12C cells measured after 48 hrs by SRB assay; format: functional
TK-10 = test: Growth inhibition of human TK-10 cells measured after 48 hrs by SRB assay; format: functional
PC-3 = test: Growth inhibition of human PC-3 cells measured after 48 hrs by SRB assay; format: functional
DU-145 = test: Growth inhibition of human DU-145 cells measured after 48 hrs by SRB assay; format: functional
MCF7 = test: Growth inhibition of human MCF7 cells measured after 48 hrs by SRB assay; format: functional
Hs-578T = test: Growth inhibition of human Hs-578T cells measured after 48 hrs by SRB assay; format: functional
[2] = Cytotoxicity against African green monkey Vero cells assessed as cell viability at 10 uM measured after 48 hrs by EZ-Cytox assay relative to control; format: cell-based; settings: chlorocebus sabaeus, read-out: Activity
HCT-116 [3] = test: Induction of apoptosis in human HCT-116 cells assessed as necrotic cells at 1.25 uM measured after 24 hrs by Annexin-V Alexa Fluor488/propidium iodide staining based flow cytometry (reference value: 4.6%); format: functional
HCT-116 [4] = test: Induction of apoptosis in human HCT-116 cells assessed as early apoptotic cells at 5 uM measured after 24 hrs by Annexin-V Alexa Fluor488/propidium iodide staining based flow cytometry (reference value: 6.3%); format: functional
HCT-116 [5] = test: Induction of apoptosis in human HCT-116 cells assessed as late apoptotic cells at 5 uM measured after 24 hrs by Annexin-V Alexa Fluor488/propidium iodide staining based flow cytometry (reference value: 1%); format: functional
HCT-116 [6] = test: Induction of apoptosis in human HCT-116 cells assessed as late apoptotic cells at 1.25 uM measured after 48 hrs by Annexin-V Alexa Fluor488/propidium iodide staining based flow cytometry (reference value: 2.2%); format: functional
HCT-116 [7] = test: Induction of apoptosis in human HCT-116 cells assessed as viable cells at 2.5 uM measured after 48 hrs by Annexin-V Alexa Fluor488/propidium iodide staining based flow cytometry (reference value: 82.3%); format: functional; settings: read-out: Activity
HCT-116 [8] = test: Induction of apoptosis in human HCT-116 cells assessed as late apoptotic cells at 2.5 uM measured after 48 hrs by Annexin-V Alexa Fluor488/propidium iodide staining based flow cytometry (reference value: 2.2%); format: functional
HCT-116 [9] = test: Induction of apoptosis in human HCT-116 cells assessed as necrotic cells at 2.5 uM measured after 48 hrs by Annexin-V Alexa Fluor488/propidium iodide staining based flow cytometry (reference value: 7.7%); format: functional
HCT-116 [10] = test: Induction of apoptosis in human HCT-116 cells assessed as viable cells at 5 uM measured after 48 hrs by Annexin-V Alexa Fluor488/propidium iodide staining based flow cytometry (reference value: 82.3%); format: functional; settings: read-out: Activity
HCT-116 [11] = test: Induction of apoptosis in human HCT-116 cells assessed as early apoptotic cells at 5 uM measured after 48 hrs by Annexin-V Alexa Fluor488/propidium iodide staining based flow cytometry (reference value: 7.7%); format: functional
Sus scrofa = species on record: Sus scrofa; test: Induction of porcine brain tubulin polymerization at 10 uM measured at 30 secs interval for 60 mins by fluorescence assay; format: tissue-based
[12] = target: Serine/threonine-protein kinase B-raf (Homo sapiens, UniProt P15056); test: Inhibition of human BRAF using MEK1 (K97R) as substrate in presence of [gamma-33P]ATP by scintillation counting method
Sequence of Serine/threonine-protein kinase B-raf (Homo sapiens, UniProt P15056) (P15056 whole entry): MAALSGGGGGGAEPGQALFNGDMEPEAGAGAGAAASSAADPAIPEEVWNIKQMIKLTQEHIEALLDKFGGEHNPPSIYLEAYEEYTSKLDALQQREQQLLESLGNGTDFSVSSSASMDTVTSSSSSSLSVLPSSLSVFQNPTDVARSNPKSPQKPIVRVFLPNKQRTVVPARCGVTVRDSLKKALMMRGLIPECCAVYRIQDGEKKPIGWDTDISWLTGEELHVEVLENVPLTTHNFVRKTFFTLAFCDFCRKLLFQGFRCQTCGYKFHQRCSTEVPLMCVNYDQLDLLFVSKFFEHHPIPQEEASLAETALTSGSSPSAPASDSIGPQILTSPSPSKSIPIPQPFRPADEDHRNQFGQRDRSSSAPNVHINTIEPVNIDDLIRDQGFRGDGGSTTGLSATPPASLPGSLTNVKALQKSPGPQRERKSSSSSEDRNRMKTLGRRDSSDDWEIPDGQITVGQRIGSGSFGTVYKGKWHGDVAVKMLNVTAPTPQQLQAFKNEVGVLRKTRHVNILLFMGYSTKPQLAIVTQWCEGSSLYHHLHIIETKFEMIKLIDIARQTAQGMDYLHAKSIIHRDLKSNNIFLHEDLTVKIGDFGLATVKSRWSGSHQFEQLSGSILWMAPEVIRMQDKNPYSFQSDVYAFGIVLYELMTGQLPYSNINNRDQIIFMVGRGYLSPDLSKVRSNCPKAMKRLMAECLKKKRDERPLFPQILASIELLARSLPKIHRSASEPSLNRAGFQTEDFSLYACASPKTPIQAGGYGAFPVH

[13] = target: Serine/threonine-protein kinase B-raf (Homo sapiens, UniProt P15056, V600E); test: Inhibition of human BRAF V600E mutant using MEK1 (K97R) as substrate in presence of [gamma-33P]ATP by scintillation counting method
Sequence of Serine/threonine-protein kinase B-raf (Homo sapiens, UniProt P15056, V600E) (P15056 2-766 V600E limits assumed): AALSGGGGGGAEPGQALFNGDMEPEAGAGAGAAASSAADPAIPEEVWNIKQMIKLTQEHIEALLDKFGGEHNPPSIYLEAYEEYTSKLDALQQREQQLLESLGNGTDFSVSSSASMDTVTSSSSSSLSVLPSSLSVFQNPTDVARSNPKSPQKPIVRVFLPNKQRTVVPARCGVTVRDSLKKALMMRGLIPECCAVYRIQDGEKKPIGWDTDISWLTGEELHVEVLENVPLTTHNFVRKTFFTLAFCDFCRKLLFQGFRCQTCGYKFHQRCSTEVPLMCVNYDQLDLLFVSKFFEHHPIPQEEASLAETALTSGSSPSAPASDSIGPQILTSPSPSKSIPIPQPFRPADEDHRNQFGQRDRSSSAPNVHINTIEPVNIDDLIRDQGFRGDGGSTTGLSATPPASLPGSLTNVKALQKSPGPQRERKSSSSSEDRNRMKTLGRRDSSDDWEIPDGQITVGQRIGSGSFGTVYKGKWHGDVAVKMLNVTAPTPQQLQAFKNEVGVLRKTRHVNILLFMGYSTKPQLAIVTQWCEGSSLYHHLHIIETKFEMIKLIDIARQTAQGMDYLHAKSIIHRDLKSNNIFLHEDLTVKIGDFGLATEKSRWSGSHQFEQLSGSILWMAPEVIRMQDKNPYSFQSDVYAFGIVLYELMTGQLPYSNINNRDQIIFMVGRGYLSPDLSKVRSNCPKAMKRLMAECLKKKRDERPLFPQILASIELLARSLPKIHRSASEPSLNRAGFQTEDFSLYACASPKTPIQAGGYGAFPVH

Homo sapiens = species on record: Homo sapiens; test: Selectivity ratio of IC50 for inhibition of human BRAF V600E mutant to IC50 for inhibition of human CRAF
[14] = read-out: LC50 (the source's name)

COc1cccc2nc(Nc3cccc(NC(=O)c4ccc(N5CCN(C)CC5)c(C(F)(F)F)c4)c3)ccc12
inhibition of growth at 10 µM [1]: 86.8% | inhibition of growth at 10 µM (LOX IMVI): 197% | GI50 (MOLT-4): 876 nM | GI50 (A549): 1430 nM | GI50 (EKVX): 1830 nM | GI50 (HOP-92): 854 nM | TGI (HOP-92): 4030 nM | CC50 (HOP-92; [14]): 18800 nM | GI50 (NCI-H23): 2930 nM | GI50 (NCI-H322M): 1650 nM | GI50 (NCI-H460): 964 nM | GI50 (COLO 205): 909 nM | GI50 (HCC 2998): 950 nM | GI50 (HT-29): 712 nM | TGI (HT-29): 1610 nM | CC50 (HT-29; [14]): 3650 nM | GI50 (SF-268): 1500 nM | GI50 (M14): 899 nM | TGI (M14): 1950 nM | CC50 (M14; [14]): 4210 nM | GI50 (MDA-MB-435): 878 nM | GI50 (SK-MEL-2): 1360 nM | GI50 (SK-MEL-28): 896 nM | GI50 (UACC-257): 1360 nM | GI50 (IGROV-1): 1250 nM | LC50 (IGROV-1): 25600 nM | TGI (IGROV-1): 4240 nM | GI50 (OVCAR-4): 1430 nM | GI50 (786-0): 923 nM | GI50 (CAKI-1): 1120 nM | GI50 (RXF 393): 802 nM | GI50 (SN12C): 1700 nM | GI50 (TK-10): 2010 nM | GI50 (PC-3): 1260 nM | GI50 (DU-145): 1810 nM | GI50 (MCF7): 851 nM | LC50 (MCF7): 4250 nM | TGI (MCF7): 1900 nM | GI50 (Hs-578T): 1070 nM | viability at 48 h, 10 µM [2]: 77.1% | Activity (HCT-116 [3]): 11% | Activity (HCT-116 [4]): 7.9% | Activity (HCT-116 [5]): 2.2% | Activity (HCT-116 [6]): 1.7% | viability at 2.5 µM (HCT-116 [7]): 79.5% | Activity (HCT-116 [8]): 2% | Activity (HCT-116 [9]): 4.2% | viability at 5 µM (HCT-116 [10]): 61.5% | Activity (HCT-116 [11]): 29.6% | Activity (Sus scrofa): Active | IC50 [12]: 2940 nM | IC50 [13]: 1460 nM | Ratio IC50 (Homo sapiens): 2
